Source: ChEMBL document CHEMBL1811817, “Molecular docking studies and in vitro screening of new dihydropyridine derivatives as human MRP1 inhibitors” (Bioorg Med Chem, 2011)

Legend:
[1] = target: T1, Multidrug resistance-associated protein 1 (Homo sapiens, UniProt P33527); test: Inhibition of vanadate-sensitive ATPase basal activity of human MRP1 expressed in Sf9 cells assessed as generation of inorganic phosphate at 10 uM by spectrophotometry in presence of glutathione; conditions: sf9, 10 µM
[2] = target: T2, MRP1 (Homo sapiens, UniProt P33527); test: Inhibition of human MRP1 expressed in Spodoptera frugiperda Sf9 cells assessed as decrease in NEM-GS induced vanadate-sensitive ATPase activity measured by generation of inorganic phosphate at 30 uM by spectrophotometry in presence of glutathione; conditions: Spodoptera frugiperda Sf9 cells expressing human MRP1, probe NEM-GS
[3] = target: T2, MRP1; test: Inhibition of human MRP1 expressed in Spodoptera frugiperda Sf9 cells assessed as decrease in NEM-GS induced vanadate-sensitive ATPase activity measured by generation of inorganic phosphate at 100 uM by spectrophotometry in presence of glutathione; conditions: Spodoptera frugiperda Sf9 cells expressing human MRP1, probe NEM-GS
[4] = target: T1, Multidrug resistance-associated protein 1; test: Inhibition of human MRP1 expressed in Spodoptera frugiperda Sf9 cells assessed as inhibition of NEM-GS-induced vanadate-sensitive ATPase activity measured by generation of inorganic phosphate by spectrophotometry in presence of glutathione

T1 sequence (P33527 whole entry): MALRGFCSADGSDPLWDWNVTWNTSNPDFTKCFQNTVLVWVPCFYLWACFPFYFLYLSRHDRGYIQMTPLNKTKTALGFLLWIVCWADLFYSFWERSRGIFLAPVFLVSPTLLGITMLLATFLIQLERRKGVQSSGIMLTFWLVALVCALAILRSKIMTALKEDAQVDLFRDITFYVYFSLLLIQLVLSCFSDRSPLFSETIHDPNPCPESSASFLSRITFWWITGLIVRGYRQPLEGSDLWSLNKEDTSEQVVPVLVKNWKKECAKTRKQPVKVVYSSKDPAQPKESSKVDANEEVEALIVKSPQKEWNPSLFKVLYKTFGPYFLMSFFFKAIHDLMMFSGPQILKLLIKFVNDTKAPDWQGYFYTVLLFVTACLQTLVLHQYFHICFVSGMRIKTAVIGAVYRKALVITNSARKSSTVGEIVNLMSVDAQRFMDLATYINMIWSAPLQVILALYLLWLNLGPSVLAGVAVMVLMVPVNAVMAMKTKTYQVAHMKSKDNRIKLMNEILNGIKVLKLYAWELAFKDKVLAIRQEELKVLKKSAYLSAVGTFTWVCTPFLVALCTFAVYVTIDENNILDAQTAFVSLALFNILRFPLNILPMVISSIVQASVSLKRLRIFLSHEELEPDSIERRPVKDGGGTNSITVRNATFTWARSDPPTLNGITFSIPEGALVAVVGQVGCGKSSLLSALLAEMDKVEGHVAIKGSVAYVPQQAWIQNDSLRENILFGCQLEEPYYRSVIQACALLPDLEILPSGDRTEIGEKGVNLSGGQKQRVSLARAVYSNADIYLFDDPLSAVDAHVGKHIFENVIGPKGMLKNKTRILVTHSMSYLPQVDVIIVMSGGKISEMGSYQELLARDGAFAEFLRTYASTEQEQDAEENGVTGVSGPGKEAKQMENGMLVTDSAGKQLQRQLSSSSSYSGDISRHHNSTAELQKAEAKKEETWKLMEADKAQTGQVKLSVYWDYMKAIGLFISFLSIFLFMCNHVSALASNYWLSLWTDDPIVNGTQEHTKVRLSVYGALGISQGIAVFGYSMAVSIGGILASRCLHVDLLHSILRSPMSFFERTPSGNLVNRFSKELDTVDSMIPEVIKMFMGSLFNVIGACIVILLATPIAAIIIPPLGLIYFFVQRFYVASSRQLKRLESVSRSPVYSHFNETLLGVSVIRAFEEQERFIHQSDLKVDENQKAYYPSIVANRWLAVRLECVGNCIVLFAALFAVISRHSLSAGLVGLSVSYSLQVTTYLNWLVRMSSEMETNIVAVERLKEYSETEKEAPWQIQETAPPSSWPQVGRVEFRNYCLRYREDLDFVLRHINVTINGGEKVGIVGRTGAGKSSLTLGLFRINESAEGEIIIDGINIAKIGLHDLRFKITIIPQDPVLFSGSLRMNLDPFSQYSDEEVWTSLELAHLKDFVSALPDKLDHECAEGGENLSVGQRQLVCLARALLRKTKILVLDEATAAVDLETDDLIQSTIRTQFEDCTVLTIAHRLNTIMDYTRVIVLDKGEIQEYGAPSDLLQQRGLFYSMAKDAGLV
T2 sequence (P33527 whole entry): as above

SMILES | inhibition (INH) [4] | also measured
CC1=C(C(=O)Nc2ccccc2)C(c2ccco2)C(C(=O)Nc2ccccc2)=C(C)N1 | – | inhibition (INH) [1]: Active; inhibition at 30 µM [2]: 52.8%
CC1=C(C(=O)Nc2ccccn2)C(c2ccc[nH]2)C(C(=O)Nc2ccccn2)=C(C)N1 | – | inhibition (INH) [1]: Active; inhibition at 30 µM [2]: 69.8%; inhibition at 100 µM [3]: 78%
CC1=C(C(=O)Nc2ccccc2)C(c2ccc(Cl)cc2)C(C(=O)Nc2ccccc2)=C(C)N1 | Not Active | –
CC1=C(C(=O)Nc2ccccc2)C(c2ccc[nH]2)C(C(=O)Nc2ccccc2)=C(C)N1 | Not Active | –
CC1=C(C(=O)Nc2ccc(C)cc2)C(c2ncc[nH]2)C(C(=O)Nc2ccc(C)cc2)=C(C)N1 | Not Active | –
CC1=C(C(=O)Nc2ccccn2)C(c2ccco2)C(C(=O)Nc2ccccn2)=C(C)N1 | Not Active | –
CC1=C(C(=O)Nc2ccccn2)C(c2ncc[nH]2)C(C(=O)Nc2ccccn2)=C(C)N1 | Not Active | –
CC1=C(C(=O)Nc2ccccc2)C(c2ncc[nH]2)C(C(=O)Nc2ccccc2)=C(C)N1 | Not Active | –
CC1=C(C(=O)Nc2ccccc2)C(c2ccccn2)C(C(=O)Nc2ccccc2)=C(C)N1 | Not Active | –
CC1=C(C(=O)Nc2ccccc2)C(c2cccs2)C(C(=O)Nc2ccccc2)=C(C)N1 | Not Active | –
